Source: patent US20240277874A1, “FLUORESCENCE-MAGNETIC RESONANCE DUAL-MODALITY CONTRAST AGENT, PREPARATION METHOD THEREFOR AND USE THEREOF” (HAINAN POLY PHARMACEUTICAL CO., LTD., priority 2021, published 2024)
Where two headings read alike, the source gives them in different places.

Legend:
ICR female mice [1] = details: value marked * with footnote not given; 60 is not among the tested doses; cited from earlier work
[2] = normal people, 20 minutes after intravenous injection; cited from earlier work
[3] = Stability of the aqueous contrast agent solution at room temperature, relative content by HPLC; format: physicochemical; details: aqueous solution 0.1 mg/mL
Method: The aqueous solution of the contrast agent (0.1 mg/mL) was left at room temperature and its stability was measured by calibrating its relative content by the HPLC method at different time points, and the stability of the contrast agent is shown in Table 4.

[4] = system: liver and kidney of ICR mice; experiment: Magnetic resonance T1-enhanced imaging (SE sequence) of liver and kidney after tail intravenous injection; format: in vivo; details: tail iv 5 mg/kg and 30 mg/kg, FIG. 1A
Method: (§1) • 1. IR-820 (new indocyanine green) and 3,6,9-trioxaundecamethylenediamine (1:1-1:5 eq.) were added to the DMSO solution. And then the triethylamine as the deacid reagent was added to the mixture. The mixture reacted at 20-80° C. for 2 h. The desired product B01 was obtained after precipitation. • 2. B01 and DOTA-NHS ([…] is N-hydroxysuccinimide) (1:1-1:3 eq.) were dissolved in DMSO solution, and 1-20 equivalents of triethylamine was added to the mixture. The mixture reacted at 10-40° C. for 24 h. The desired product B02 was obtained after precipitation. • 3. B02 was reacted with 0.5-2 equivalents of gadolinium chloride hydrate in DMSO at 10-50° C. for 10 h-50 h, and the desired product PL-001 was obtained after precipitation, yield of 83%, purity of 91%. • 4. The final product was dissolved in pure water to create a solution. The product was administered to ICR mice by tail intravenous injection at doses of 5 mg/kg and 30 mg/kg, respectively. Magnetic resonance T1-enhanced imaging (SE sequence) was performed on the liver and kidney of the mice before and after the administration of the product. After the magnetic resonance imaging was completed, the livers and kidneys were removed for fluorescence imaging. […] From the figure, it can be seen that the magnetic resonance enhancement and fluorescence imaging results of the liver and kidney were basically consistent.

[5] = system: liver and kidney of ICR mice; experiment: Fluorescence imaging of removed livers and kidneys after magnetic resonance imaging; format: in vivo; details: 6 hours after administration, FIG. 1C
Method: as §1

ICR female mice [6] = details: mouse, in vivo, iv
Source text: The maximum tolerated dose (MTD) of the contrast agent was preliminarily determined by administration to mice by tail intravenous injection.

[7] = Longitudinal relaxation rate (r1), 0.35T nuclear magnetic resonance imaging system, IR sequence; format: physicochemical; details: for r1 in BSA solution(1%): bovine serum protein solution (1%, w/w); for r1 in Water: pure water
Method: The longitudinal relaxation rate (r1) of the contrast agent was determined in a 0.35T small nuclear magnetic resonance imaging system using an IR […] sequence. The relaxation rates of the contrast agent in pure water and in bovine serum protein solution (1%, w/w) in different solvents are shown in Table 3 below.

[8] = system: H22 liver in situ tumors in Balb/c mice; experiment: Magnetic resonance T1-enhanced imaging of liver in situ tumors, GE 3.0T system; format: in vivo; details: Balb/c mice with H22 liver in situ tumor, 1 mg/mL solution, 5 mL/kg tail iv, FIG. 3
Method: Magnetic resonance imaging of liver in situ tumors with a contrast agent was performed using a GE 3.0T magnetic resonance imaging system. H22 cells were inoculated in Balb/c mice through liver in-situ injection, and liver conditions were observed through magnetic resonance. After the tumor was formed, 1 mg/mL contrast agent solution (5 mL/kg) was injected through the tail intravenous, and the liver was subjected to magnetic resonance T1-enhanced imaging at different time points after the administration of the agent.

[9] = system: murine hepatocellular carcinoma cells H22; experiment: Cell entry rate of the contrast agent by flow cytometry; format: cell-based; details: compared among PL-002, PL-003, PL-004 and PL-006, FIG. 2
Method: The cell entry rate of the contrast agent at the cell level was determined by flow cytometers. Logarithmically grown murine hepatocellular carcinoma cells H22 were collected and spread evenly in 12-well plates, with an approximate cell number of 1.5×10^5 per well.

[10] = system: major organs of liver in situ tumor mice; experiment: Tissue fluorescence of liver in situ tumor mice, small animal live imaging analyzer; format: in vivo; details: organs removed after magnetic resonance imaging, FIG. 4
Source text: Liver in situ tumor mice tissue fluorescence was observed by a small animal live imaging analyzer (Perkin Elmer). After magnetic resonance imaging, the major organs of the mice were removed and observed by live imaging, and the results are shown in FIG. 4.

Row | Compound | MTD (ICR female mice [1]) | eliminated from the blood [2] | decomposition rate % ([3]; 0 h) [%] | decomposition rate % ([3]; 2 h) | decomposition rate % ([3]; 24 h) | decomposition rate % ([3]; 48 h) | magnetic resonance T1-enhanced imaging of liver and kidney [4] | fluorescence imaging of liver and kidney [5] | MTD (ICR female mice [6]) [mg/kg] | r1 in BSA solution(1%) [7] [mM⁻¹ s⁻¹] | r1 in Water [7] [mM⁻¹ s⁻¹] | magnetic resonance T1 enhancement of the tumor site [8] | cell entry rate [9] | distinction of tumor from normal tissue and fluorescence intensity [10]
1 | CC1(C)C(/C=C/C=C/C=C/C=C2\N(CCCCS(=O)(=O)O)c3ccc4ccccc4c3C2(C)C)=[N+](CCCCS(=O)(=O)[O-])c2ccc3ccccc3c21 [ICG, Indocyanine green] | 60* mg/kg | about 97% | – | – | – | – | – | – | – | – | – | – | – | –
2 | CC1(C)C(=CC=C2CCCC(C=CC3=[N+](CCCCS(=O)(=O)O)c4ccc5ccccc5c4C3(C)C)=C2NCCCOCCOCCOCCCNC(=O)CN2CCN(CC(=O)[O-])CCN(CC(=O)[O-])CCN(CC(=O)[O-])CC2)N(CCCCS(=O)(=O)O)c2ccc3ccccc3c21.[Gd+3] [PL-001] | – | – | 0 | 5.9% | 40.0% | 65.4% | significant enhancement of liver and kidney | significant fluorescence of the liver and kidney | 75 | – | – | – | – | –
3 | CC1(C)C(/C=C/C2=C(Oc3ccc(CCC(=O)NCCOCCOCCNC(=O)CN4CCN(CC(=O)[O-])CCN(CC(=O)[O-])CCN(CC(=O)[O-])CC4)cc3)C(=C/C=C3/N(CCCCS(=O)(=O)O)c4ccc5ccccc5c4C3(C)C)/CCC2)=[N+](CCCCS(=O)(=O)O)c2ccc3ccccc3c21.[Gd+3] [PL-004] | – | – | 0 | <LOQ | <LOQ | <LOQ | – | – | 125 | 17.6 | 14.7 | – | – | –
4 | CC1(C)C(/C=C/C2=C(Oc3ccc(CCC(=O)NCCOCCOCCOCCNC(=O)CN4CCN(CC(=O)[O-])CCN(CC(=O)[O-])CCN(CC(=O)[O-])CC4)cc3)C(=C/C=C3/N(CCCCS(=O)(=O)O)c4ccc5ccccc5c4C3(C)C)/CCC2)=[N+](CCCCS(=O)(=O)O)c2ccc3ccccc3c21.[Gd+3] [PL-002] | – | – | 0 | <LOQ | <LOQ | <LOQ | – | – | 125 | 16.2 | 11.8 | – | – | –
5 | CC1(C)C(/C=C/C2=C(Oc3ccc(CCC(=O)NCCCCCCCCCCNC(=O)CN4CCN(CC(=O)[O-])CCN(CC(=O)[O-])CCN(CC(=O)[O-])CC4)cc3)C(=C/C=C3/N(CCCCS(=O)(=O)O)c4ccc5ccccc5c4C3(C)C)/CCC2)=[N+](CCCCS(=O)(=O)O)c2ccc3ccccc3c21.[Gd+3] [PL-003] | – | – | 0 | <LOQ | <LOQ | <LOQ | – | – | 150 | 18.9 | 15.4 | better enhancement effect | fastest cellular entry | tumor is distinguished from the normal tissue and has better fluorescence intensity
